{
  "source": "paper PMC6336887",
  "about": "“Smallest near-infrared fluorescent protein evolved from cyanobacteriochrome as versatile tag for spectral multiplexing” (Nature Communications, 2019)",
  "key": {"[1]": {"target": "T1, NpR3784 GAF domain (Nostoc punctiforme, UniProt B2J457)", "T1 construct": "gene Npun_R3784", "assay": "near-infrared fluorescence of E. coli co-expressing heme oxygenase", "type": "cell-based", "details": "weak binding; BV produced in the cells"}, "[2]": {"target": "T2, miRFP670nano (Nostoc punctiforme, UniProt B2J457, V48M/F66C/M67V/Y68F/P72E/S82A/A89S/N92K/Q96R/T98R/I113Y/G123N/H128Y/N140I/N158H/C160L/L177Q/Q180V, form not given)", "T2 construct": "gene Npun_R3784; single GAF domain, N-terminal alpha1-helix removed, 147 residues, 17 kDa, N-terminal polyhistidine tag, E. coli LMG194 co-expressing heme oxygenase, monomer", "assay": "X-ray crystal structure, […] A", "type": "binding", "details": "covalent thioether, Cys86 to C3^1 of ring A; crystals at pH 4.0; BV from co-expressed heme oxygenase"}},
  "data": [
    {"smiles": "C=CC1=C(C)C(=Cc2[nH]c(C=C3N=C(C=C4NC(=O)C(C)=C4C=C)C(C)=C3CCC(=O)O)c(CCC(=O)O)c2C)NC1=O", "note": "[biliverdin]", "values": [
      {"measurement": "near-infrared fluorescence of E. coli co-expressing heme oxygenase", "setting": "[1]", "value": "the GAF domain of NpR3784 CBCR"},
      {"measurement": "X-ray crystal structure, 1.95 A", "setting": "[2]", "value": "BV is covalently attached by a thioether bond between the conserved for CBCRs Cys86 residue"}
    ]}
  ]
}
